A word on the IC50: it is the point on the concentration scale where inhibition reaches its midpoint. A word on the Kd: it is the free concentration of one partner at which half of the binding sites on the other are occupied at equilibrium, for simple one-to-one binding. A higher Kd goes with lower affinity. By half-life is commonly meant the time needed for the level to fall by half in the phase considered.

One data set is described as follows: in vitro. The note with it: human. As to the method:
Metabolic stability assay
Hepatic microsomal stability assays were conducted by Charles River Laboratories. Assays were performed in duplicate.
The stability of the test compound (1 µM) was measured following incubation at 37 °C with […] (0.5 mg protein/mL) in the presence of the cofactor, NADPH.
Incubates were prepared in duplicate, with aliquots removed at 0, 5, 10, 20 and 40 minutes and reactions terminated, and the compound was extracted by the addition of solvent. The disappearance of the parent compound was be monitored by LC-MS/MS and the half-life determined over the time-course of incubation. The half-life value was used to calculate the in vitro intrinsic clearance expressed as µL/min/mg protein.
Table S11. Metabolic Stability Data
Half- Half- Half- Clint Clint Mean Clint
Compound Cofactor life life Life (uL/min/mg (uL/min/mg (uL/min/mg Species (min) (min) (min) protn) n=1 protn) n=2 protn) (results)

In another data set the test system is T cell proliferation. The note with it: Fig. 1a; cited from earlier work. The source says: Fig. 1 Evolution of a strategy for one-carbon alkene homologation. a, The effect of homologues on biological activity: side chain length compared with immunosuppressive activity in a family of natural products. b, Homologation processes for common functional groups. c, Generally adopted sequence for alkene homologation. d, Design plan for a catalytic one-carbon alkene homologation process. TEXT PRINTED IN THE PICTURE: (a) R = CH3 FK-523 (FR-900523): T cell proliferation IC50 (nM): 2.72 | (a) R = CH2CH3 FK-520 (ascomycin): T cell proliferation IC50 (nM): 0.69 | (a) R = CH2CH2CH3: T cell prolife ...

In a further data set the target is Human Cyclophilin A (Homo sapiens, UniProt P62937). Description: PPIase TR-FRET competitive binding assay. As to the method:
PPIase TR-FRET competitive binding assay
Cyclophilin A assays were conducted by Eurofins Integrated Discovery UK Ltd (EID) to determine the inhibitory activity of the analogues against the Human Cyclophilin A in a TR-FRET Competitive Binding assay. Assays were performed in duplicate, with Kd values calculated from mean averages. […]
binding to the CypA enzyme: the CypA enzyme, tagged with a polyhistidine sequence, forms a complex with an anti-6xHis antibody labelled with a fluorescent donor, F(d), and the enzyme […]
Compounds are diluted from DMSO stocks to 50-fold the final concentration and then in assay buffer to 2-fold the final assay plate concentration. An equal volume of compound is added to the master mix in the assay plate containing the enzyme/antibody/ligand complex, with a final concentration of detergent of 0.01%. This is incubated for 30 mins at room temperature and the plate read at 2 wavelengths (A and B) to detect emission from F(d) and F(a), respectively. The ratio B/A is calculated, blank subtracted and either expressed as a percentage of the ‘no inhibitor’ control or the blank subtracted values are plotted against the inhibitor concentration in Log10 Molar and fitted using one site Ki nonlinear regression to determine the Kd. Where possible, compound Kds are determined from duplicate data points. Each assay plate is set up with ‘no enzyme’ blanks and ‘no inhibitor’ controls, which are used to determine the Z’ value for each plate.
In general terms: In TR-FRET formats the signal depends on donor and acceptor labels being close together.

The subject of data set [1] is calcineurin in the presence of Cyclophilin A. Description: Calcineurin inhibition assay (phosphatase activity in the presence of Cyclophilin A). The class given is biochemical. The note with it: in vitro calcineurin phosphatase activity assay. As to the method:
Calcineurin inhibition assay
Calcineurin inhibition assays were conducted by Eurofins Integrated Discovery UK Ltd (EID) to determine the effect of compounds on the activity of calcineurin in the presence of Cyclophilin A. Assays were performed in duplicate, with IC50 values calculated from mean […]
Compounds were diluted with and without immunophilin (CypA) in a 96-well plate. After addition of calcineurin/calmodulin complex, the plate was incubated at 30 °C for 10 minutes.
The addition of the RII phosphopeptide substrate initiated the reaction, and the plate was […]
The reaction was stopped by the addition of Malachite green reagent. The plate was incubated at room temperature to allow colour development (5 – 20 mins). After sufficient colour has developed, the absorbance is read at 620 nm. Blank subtracted absorbance readings are plotted against compound concentration to determine IC50 values or % inhibition at the top concentration.

Human Cyclophilin A, sequence (P62937 whole entry): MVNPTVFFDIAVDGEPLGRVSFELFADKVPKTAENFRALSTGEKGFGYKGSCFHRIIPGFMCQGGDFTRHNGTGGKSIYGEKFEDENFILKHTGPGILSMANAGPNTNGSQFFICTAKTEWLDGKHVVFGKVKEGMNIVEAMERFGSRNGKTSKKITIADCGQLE

As for `Cc1ncc2n1-c1ccc(Cl)cc1C(c1ccccc1F)=NC2` [Midazolam, reference compound], in the data set “in vitro”, the “Clint (uL/min/mg protn) n=1” value was determined as 277, the “Clint (uL/min/mg protn) n=2” value is on record as 277, the “Half-Life (min) (Mean)” value came out at 5 min and the “Half-life (min) n=1” value is reported as 5 min. Moreover, in the data set “in vitro”, the “Half-life (min) n=2” value is listed as 5 min and the “Mean Clint (uL/min/mg protn)” value amounted to 277.

For `CC[C@@H]1/C=C(\C)C[C@H](C)C[C@H](OC)[C@H]2O[C@@](O)(C(=O)C(=O)N3CCCC[C@H]3C(=O)O[C@H](/C(C)=C/[C@@H]3CC[C@@H](O)[C@H](OC)C3)[C@H](C)[C@@H](O)CC1=O)[C@H](C)C[C@@H]2OC` [FK-520, ascomycin], in the data set on T cell proliferation, the IC50 is 0.69 nM.

`CO[C@H]1C[C@@H](C)C/C(C)=C\[C@@H](C)C(=O)C[C@H](O)[C@@H](C)[C@@H](/C(C)=C/[C@@H]2CC[C@@H](O)[C@H](OC)C2)OC(=O)[C@@H]2CCCCN2C(=O)C(=O)[C@]2(O)O[C@H]1[C@@H](OC)C[C@H]2C` [FK-523]: in the data set on T cell proliferation, the IC50 is 2.72 nM.

On Human Cyclophilin A, `[2H]C([2H])([2H])/C=C/CC[C@@H](C)[C@@H](O)[C@H]1C(=O)N[C@@H](CC)C(=O)N(C)CC(=O)N(C)[C@@H](CC(C)C)C(=O)N[C@@H](C(C)C)C(=O)N(C)[C@@H](CC(C)C)C(=O)N[C@@H](C)C(=O)N[C@H](C)C(=O)N(C)[C@@H](CC(C)C)C(=O)N(C)[C@@H](CC(C)C)C(=O)N(C)[C@@H](C(C)C)C(=O)N1C` [compound 23] had a Kd of 45.9 nM. In addition, the half-life at 1 µM in “in vitro” (both, liver microsomes) was 31 min. In addition, in the data set “in vitro”, the “Clint (uL/min/mg protn) n=1” value was found to be 44 uL/min/mg protn, the “Clint (uL/min/mg protn) n=2” value worked out at 45 uL/min/mg protn, the “Half-life (min) n=1” value was found to be 32 min and the “Half-life (min) n=2” value stood at 31 min. Also, the “Mean Clint (uL/min/mg protn)” value in “in vitro” was 44 uL/min/mg protn.

Turning to `COc1ccc2c(c1)[C@]13CCCC[C@@H]1[C@H](C2)N(C)CC3` [Dextromethorphan, reference compound], in the data set “in vitro”, the “Clint (uL/min/mg protn) n=1” value was determined as 29, the “Clint (uL/min/mg protn) n=2” value was 29, the “Half-Life (min) (Mean)” value was determined as 48 min and the “Half-life (min) n=1” value was determined as 49 min. Further, in “in vitro”, the “Half-life (min) n=2” value was 47 min and the “Mean Clint (uL/min/mg protn)” value amounted to 29.

Regarding `CCCC1C=C(C)CC(C)CC(OC)C2OC(O)(C(=O)C(=O)N3CCCCC3C(=O)OC(C(C)=CC3CCC(O)C(OC)C3)C(C)C(O)CC1=O)C(C)CC2OC` (stereo not shown) [R = CH2CH2CH3], the IC50 in the data set with T cell proliferation is 0.93 nM.

On to `C=CC[C@@H]1/C=C(\C)C[C@H](C)C[C@H](OC)[C@H]2O[C@@](O)(C(=O)C(=O)N3CCCC[C@H]3C(=O)O[C@H](/C(C)=C/[C@@H]3CC[C@@H](O)[C@H](OC)C3)[C@H](C)[C@@H](O)CC1=O)[C@H](C)C[C@@H]2OC` [Tacrolimus, tacrolimus], for which, in the data set on T cell proliferation, the IC50 is 0.18 nM.

`C=CCCC[C@@H](C)[C@@H](O)[C@H]1C(=O)N[C@@H](CC)C(=O)N(C)CC(=O)N(C)[C@@H](CC(C)C)C(=O)N[C@@H](C(C)C)C(=O)N(C)[C@@H](CC(C)C)C(=O)N[C@@H](C)C(=O)N[C@H](C)C(=O)N(C)[C@@H](CC(C)C)C(=O)N(C)[C@@H](CC(C)C)C(=O)N(C)[C@@H](C(C)C)C(=O)N1C` [compound 26, homoisocyclosporine A] gave a Kd at Human Cyclophilin A of 10.2 nM. In addition, in data set [1], the “calcineurin inhibition compared with cyclosporine A (in words)” value is reported as “restored calcineurin inhibition to levels comparable with those of cyclosporine A”. For the same compound, in the data set “in vitro”, the “Clint (uL/min/mg protn) n=1” value is given as 69 uL/min/mg protn, the “Clint (uL/min/mg protn) n=2” value was determined as 65 uL/min/mg protn and the “Mean Clint (uL/min/mg protn)” value came out at 67 uL/min/mg protn.

Take `CC[C@@H]1NC(=O)[C@H]([C@H](O)[C@H](C)CC/C=C\F)N(C)C(=O)[C@H](C(C)C)N(C)C(=O)[C@H](CC(C)C)N(C)C(=O)[C@H](CC(C)C)N(C)C(=O)[C@@H](C)NC(=O)[C@H](C)NC(=O)[C@H](CC(C)C)N(C)C(=O)[C@H](C(C)C)NC(=O)[C@H](CC(C)C)N(C)C(=O)CN(C)C1=O` [compound 24]: the “decrease in phosphatase activity compared with cyclosporine A” value in data set [1] amounted to 10 fold. Moreover, in the data set “in vitro”, the “Clint (uL/min/mg protn) n=1” value is on record as 48 uL/min/mg protn, the “Clint (uL/min/mg protn) n=2” value was determined as 53 uL/min/mg protn, the “Half-life (min) n=1” value is reported as 29 min and the “Half-life (min) n=2” value amounted to 26 min. Besides, in “in vitro”, the “Mean Clint (uL/min/mg protn)” value was found to be 51 uL/min/mg protn.

These data come from article PMC12221989, “One-carbon homologation of alkenes” (Nature, 2025).
